Measured values taken from US20190322676A1, “CERAMIDE GALACTOSYLTRANSFERASE INHIBITORS FOR THE TREATMENT OF DISEASE” (BioMarin Pharmaceutical Inc., priority 2016, published 2019).
pIC50: −log10 of the molar value. Where a name gives a salt, the structure may show the parent alone.

Molecular target: T1, human CGT (ceramide galactosyltransferase), CHO/CGT lysate (Homo sapiens, UniProt Q16880)
T1 construct: Full-length human CGT cDNA was cloned into the BamH1/Xho1 site of pcDNA3.1 (+); expressed in transfected cells; host or cells: Chinese hamster ovary (CHO) cells; lysate prepared with M-PER
T1 sequence (Q16880 21-541): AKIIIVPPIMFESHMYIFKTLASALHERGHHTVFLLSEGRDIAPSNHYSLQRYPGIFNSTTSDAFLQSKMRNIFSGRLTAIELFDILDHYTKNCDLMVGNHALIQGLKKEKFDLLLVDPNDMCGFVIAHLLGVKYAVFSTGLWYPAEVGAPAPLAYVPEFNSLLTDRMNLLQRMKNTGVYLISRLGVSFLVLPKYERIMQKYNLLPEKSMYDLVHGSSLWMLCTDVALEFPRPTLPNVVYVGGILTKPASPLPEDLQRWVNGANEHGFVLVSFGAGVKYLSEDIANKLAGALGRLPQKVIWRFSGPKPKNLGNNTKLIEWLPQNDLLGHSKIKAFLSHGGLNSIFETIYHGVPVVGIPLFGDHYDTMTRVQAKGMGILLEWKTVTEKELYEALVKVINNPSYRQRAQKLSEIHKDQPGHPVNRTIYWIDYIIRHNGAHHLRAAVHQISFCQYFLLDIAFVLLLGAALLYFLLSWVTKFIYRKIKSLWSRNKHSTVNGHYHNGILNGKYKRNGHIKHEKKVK
Assay: CGT enzyme assay, RapidFire/MS/MS readout (Table 1 ranges with one asterisk *)
Format: biochemical
Conditions: RapidFire method (range with one asterisk *)
Summary of the method: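 Lysate (4 μg) of CHO cells transfected with full-length human CGT incubated 1 h at 37 °C with compound (0.001–50 μM) in pH 7.2 HEPES buffer with 10 μM C6-NBD-dihydro-ceramide, 17.5 μM UDP-galactose, Mg2+/Mn2+, CHAPS, BSA, 0.5% DMSO; ** set also contained 0.01% Tween 80. Product quantified by RapidFire/MS/MS, normalized to internal standard; IC50 from sigmoidal variable-slope fits.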

| SMILES | pIC50 |
| --- | --- |
| CN([C@H](C(=O)N1C2CCC1CC(N)C2)C(F)(F)c1cccc(Br)c1)S(=O)(=O)c1ccc2cc(OC3CCCC3)ccc2c1 (stereo partly drawn) [Compound 67-1, N-((2R)-3-(3-amino-8-azabicyclo[3.2.1]octan-8-yl)-1-(3-bromophenyl)-1,1-difluoro-3-oxopropan-2-yl)-6-(cyclopentyloxy)-N-methylnaphthalene-2-sulfonamide] | 5.00 to 6.00 |
| N[C@H]1CCN(C(=O)[C@H](NS(=O)(=O)c2ccc3cc(OC4CCCC4)ccc3c2)C(F)(F)c2ccc(Br)cc2)C1 [Compound 140-2, N—((S)-3-((S)-3-aminopyrrolidin-1-yl)-1-(4-bromophenyl)-1,1-difluoro-3-oxopropan-2-yl)-6-(cyclopentyloxy)naphthalene-2-sulfonamide] | 4.52 to 5.00 |
| NC1CC2CCC(C1)N2C(=O)[C@@H](NS(=O)(=O)c1ccc2cc(OC3CCCC3)ccc2c1)C(F)(F)c1ccc(C(F)(F)F)cc1 (stereo partly drawn) [Compound 54-1, N-((2R)-3-(3-amino-8-azabicyclo[3.2.1]octan-8-yl)-1,1-difluoro-3-oxo-1-(4-(trifluoromethyl)phenyl)propan-2-yl)-6-(cyclopentyloxy)naphthalene-2-sulfonamide] | > 6.00 |
| NC1CC2CCC(C1)N2C(=O)[C@@H](NC(=O)[C@@H](O)c1ccc2cc(OC3CCCC3)ccc2c1)C(F)(F)c1ccc(Br)cc1 (stereo partly drawn) [Compound 41-3, (2S)—N-((2R)-3-(3-amino-8-azabicyclo[3.2.1]octan-8-yl)-1-(4-bromophenyl)-1,1-difluoro-3-oxopropan-2-yl)-2-(6-(cyclopentyloxy)naphthalen-2-yl)-2-hydroxyacetamide trifluoroacetate] | 5.00 to 6.00 |
| CN([C@H](C(=O)N1C2CCC1CC(N)C2)C(F)(F)c1ccc(Oc2ccccc2)cc1)S(=O)(=O)c1ccc2cc(OC3CCCC3)ccc2c1 (stereo partly drawn) [Compound 87-1, N-((2R)-3-(3-amino-8-azabicyclo[3.2.1]octan-8-yl)-1,1-difluoro-3-oxo-1-(4-phenoxyphenyl)propan-2-yl)-6-(cyclopentyloxy)-N-methylnaphthalene-2-sulfonamide trifluoroacetate] | > 6.00 |
| CCCCOc1cc(C(F)(F)[C@H](NS(=O)(=O)c2ccc3cc(OC4CCCC4)ccc3c2)C(=O)N2CCC(N)CC2)ccc1Cl [Compound 126-1, (R)—N-(3-(4-aminopiperidin-1-yl)-1-(3-butoxy-4-chlorophenyl)-1,1-difluoro-3-oxopropan-2-yl)-6-(cyclopentyloxy)naphthalene-2-sulfonamide] | > 6.00 |
| NC1CC2CCC(C1)N2C(=O)[C@@H](NS(=O)(=O)c1ccc2cc(OC3CCCC3)ccc2c1)C(F)(F)c1cccc(Oc2ccccc2)c1 (stereo partly drawn) [Compound 107-1, N-((2R)-3-(3-amino-8-azabicyclo[3.2.1]octan-8-yl)-1,1-difluoro-3-oxo-1-(3-phenoxyphenyl)propan-2-yl)-6-(cyclopentyloxy)naphthalene-2-sulfonamide] | > 6.00 |
| CCCCOc1ccc(C(F)(F)[C@H](NS(=O)(=O)c2ccc(OCC3CCCCC3)cc2)C(=O)N2CCC(N)CC2)cc1 [Compound 81-1, (R)—N-(3-(4-aminopiperidin-1-yl)-1-(4-butoxyphenyl)-1,1-difluoro-3-oxopropan-2-yl)-4-(cyclohexylmethoxy)benzenesulfonamide trifluoroacetate] | 5.00 to 6.00 |
| CN([C@H](C(=O)N1C2CCC1CC(N)C2)C(F)(F)c1ccc(-c2ccccc2)cc1)S(=O)(=O)c1ccc2cc(OC3CCCC3)ccc2c1 (stereo partly drawn) [Compound 49-1, N-((2R)-1-([1,1′-biphenyl]-4-yl)-3-(3-amino-8-azabicyclo[3.2.1]octan-8-yl)-1,1-difluoro-3-oxopropan-2-yl)-6-(cyclopentyloxy)-N-methylnaphthalene-2-sulfonamide] | 5.00 to 6.00 |
| NC1CC2CCC(C1)N2C(=O)[C@H](NC(=O)C(=O)c1ccc2cc(OC3CCCC3)ccc2c1)C(F)(F)c1ccc(-c2ccc(Cl)cc2)cc1 (stereo partly drawn) [Compound 133-2, N-((2S)-3-(3-amino-8-azabicyclo[3.2.1]octan-8-yl)-1-(4′-chloro-[1,1′-biphenyl]-4-yl)-1,1-difluoro-3-oxopropan-2-yl)-2-(6-(cyclopentyloxy)naphthalen-2-yl)-2-oxoacetamide trifluoroacetate] | 4.00 to 4.52 |
| NC1CCN(C(=O)[C@H](NS(=O)(=O)c2ccc3cc(OC4CCCC4)ccc3c2)C(F)(F)c2ccc(-c3ccc(Cl)s3)cc2)CC1 [Compound 112-2, (S)—N-(3-(4-aminopiperidin-1-yl)-1-(4-(5-chlorothiophen-2-yl)phenyl)-1,1-difluoro-3-oxopropan-2-yl)-6-(cyclopentyloxy)naphthalene-2-sulfonamide trifluoroacetate] | 5.00 to 6.00 |
| CC(C)N([C@H](C(=O)N1C2CCC1CC(N)C2)C(F)(F)c1ccc(Br)cc1)S(=O)(=O)c1ccc2cc(OC3CCCC3)ccc2c1 (stereo partly drawn) [Compound 76-1, N-((2R)-3-(3-amino-8-azabicyclo[3.2.1]octan-8-yl)-1-(4-bromophenyl)-1,1-difluoro-3-oxopropan-2-yl)-6-(cyclopentyloxy)-N-isopropylnaphthalene-2-sulfonamide] | 4.52 to 5.00 |
| CN([C@@H](C(=O)N1C2CCC1CC(N)C2)C(F)(F)c1ccc(OCCN2CCCCC2)cc1)S(=O)(=O)c1ccc2cc(OC3CCCC3)ccc2c1 (stereo partly drawn) [Compound 116-2, N-((2S)-3-(3-amino-8-azabicyclo[3.2.1]octan-8-yl)-1,1-difluoro-3-oxo-1-(4-(2-(piperidin-1-yl)ethoxy)phenyl)propan-2-yl)-6-(cyclopentyloxy)-N-methylnaphthalene-2-sulfonamide] | 4.00 to 4.52 |
| NC1CC2CCC(C1)N2C(=O)[C@@H](NS(=O)(=O)c1ccc2cc(OC3CCCC3)ccc2c1)C(F)(F)c1cccc(-c2ccccc2)c1 (stereo partly drawn) [Compound 66-1, N-((2R)-1-([1,1′-biphenyl]-3-yl)-3-(3-amino-8-azabicyclo[3.2.1]octan-8-yl)-1,1-difluoro-3-oxopropan-2-yl)-6-(cyclopentyloxy)naphthalene-2-sulfonamide] | > 6.00 |
| CC(C)Oc1ccc2cc(S(=O)(=O)N[C@@H](C(=O)N3C4CCC3CC(N)C4)C(F)(F)c3ccc(-c4ccccc4)cc3)ccc2c1 (stereo partly drawn) [Compound 31-2, N-((2S)-1-([1,1′-biphenyl]-4-yl)-3-(3-amino-8-azabicyclo[3.2.1]octan-8-yl)-1,1-difluoro-3-oxopropan-2-yl)-6-isopropoxynaphthalene-2-sulfonamide trifluoroacetate] | 4.52 to 5.00 |
| NC1CCN(C(=O)[C@@H](NS(=O)(=O)c2ccc3c(cnn3CC3CCCC3)c2)C(F)(F)c2ccc(C(F)(F)F)cc2)CC1 [Compound 93-1, (R)—N-(3-(4-aminopiperidin-1-yl)-1,1-difluoro-3-oxo-1-(4-(trifluoromethyl)phenyl)propan-2-yl)-1-(cyclopentylmethyl)-1H-indazole-5-sulfonamide] | 5.00 to 6.00 |
| N[C@@H]1CCCN(C(=O)[C@@H](NS(=O)(=O)c2ccc3cc(OC4CCCC4)ccc3c2)C(F)(F)c2ccc(Br)cc2)C1 [Compound 122-1, N—((R)-3-((R)-3-aminopiperidin-1-yl)-1-(4-bromophenyl)-1,1-difluoro-3-oxopropan-2-yl)-6-(cyclopentyloxy)naphthalene-2-sulfonamide] | 5.00 to 6.00 |
| NC1CCN(C(=O)[C@H](NS(=O)(=O)c2ccc3cc(OC4CCCC4)ccc3c2)C(F)(F)c2ccc(Oc3ccccc3)cc2)CC1 [Compound 61-2, (S)—N-(3-(4-aminopiperidin-1-yl)-1,1-difluoro-3-oxo-1-(4-phenoxyphenyl)propan-2-yl)-6-(cyclopentyloxy)naphthalene-2-sulfonamide] | > 6.00 |
| NC1CCN(C(=O)[C@@H](NS(=O)(=O)c2ccc3cc(OC4CCCC4)ccc3c2)C(F)(F)c2ccc(Br)cc2)CC1 [Compound 32-1, (R)—N-(3-(4-aminopiperidin-1-yl)-1-(4-bromophenyl)-1,1-difluoro-3-oxopropan-2-yl)-6-(cyclopentyloxy)naphthalene-2-sulfonamide trifluoroacetate] | > 6.00 |
